Measured values: patent US7354927B2, “6H-[1]benzopyrano[4,3-b]quinolines and their use as estrogenic agents” (Wyeth, priority 2004, dated 2008)

Experiments:
human ERα = molecular target: T1, human ERα (Homo sapiens, UniProt P03372); assay: Competition with [3H]-17β-estradiol for binding to the ERα ligand binding domain; settings: E. coli lysate expressing human ERα LBD; 2 nM [3H]-17β-estradiol; 5-15 hours at room temperature
T1 construct: made in house; host or cells: E. coli (crude lysate)
T1 sequence (P03372 311-547 limits assumed): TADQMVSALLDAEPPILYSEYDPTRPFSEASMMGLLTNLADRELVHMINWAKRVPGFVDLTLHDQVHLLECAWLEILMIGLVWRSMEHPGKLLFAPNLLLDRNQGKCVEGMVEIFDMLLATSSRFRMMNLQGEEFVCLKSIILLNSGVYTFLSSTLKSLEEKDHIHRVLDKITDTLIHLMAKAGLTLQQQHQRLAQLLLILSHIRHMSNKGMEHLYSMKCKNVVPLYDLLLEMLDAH
Description: (§1) Representative examples of the invention were evaluated for their ability to compete with 17β-estradiol for both ERα and ERβ. The test procedure used allows one to determine whether a particular compound binds to the estrogen receptor (and is therefore “estrogenic”) and whether there is selectivity for ERα or ERβ. […] The IC50 is defined as the concentration of compound that decreases total 17β-estradiol binding by 50%. The procedure used is briefly described. A crude lysate of E. coil expressing the estrogen receptor ligand binding domains (D, E, and F) of human ERα or ERβ was prepared. Both receptors and compounds were diluted in 1× Dulbecco's phosphate buffered saline (DPBS) supplemented with 1 mM ethylenediamine tetraacetic acid (EDTA). Using a high binding masked microtiter plate, 100 uL of receptor (1 uG/well) was combined with 2 nM [^3H]-17β-estradiol and various concentrations of compound. After between 5 and 15 hours at room temperature, the plates were washed with DPBS/1 mM EDTA and bound radioactivity determined by liquid scintillation counting.

human ERβ = molecular target: T2, human ERβ (Homo sapiens, UniProt Q92731); assay: Competition with [3H]-17β-estradiol for binding to the ERβ ligand binding domain; settings: for IC50: E. coli lysate expressing human ERβ LBD, 2 nM [3H]-17β-estradiol, 5-15 hours at room temperature
T2 construct: made in house; host or cells: E. coli (crude lysate)
T2 sequence (Q92731 264-498 limits assumed): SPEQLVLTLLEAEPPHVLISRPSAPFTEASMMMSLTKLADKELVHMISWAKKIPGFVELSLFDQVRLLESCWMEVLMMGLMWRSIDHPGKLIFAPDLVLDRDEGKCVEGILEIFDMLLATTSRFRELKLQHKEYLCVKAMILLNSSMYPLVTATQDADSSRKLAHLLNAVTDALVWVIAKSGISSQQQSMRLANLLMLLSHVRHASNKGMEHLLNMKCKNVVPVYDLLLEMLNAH
Description: as §1

| SMILES | melting point | IC50 (human ERα) [nM] | IC50 (human ERβ) [nM] | α/β receptor selectivity (ratio of ERα IC50 to ERβ IC50) (human ERβ) |
| --- | --- | --- | --- | --- |
| COc1ccc2c(c1)OCc1c-2nc2ccc(OC)cc2c1Cl [Cpd 4, 7-CHLORO-3,9-DIMETHOXY-6H-CHROMENO[4,3-b]QUINOLINE] | 190 to 191 °C | – | – | – |
| COc1ccc2c(c1)OCc1c-2nc2ccc(OC)cc2c1Br [Cpd 5, 7-BROMO-3,9-DIMETHOXY-6H-CHROMENO[4,3-b]QUINOLINE] | 196 to 197 °C | – | – | – |
| Oc1ccc2c(c1)OCc1c-2nc2ccc(O)cc2c1Cl [Cpd 6, 7-CHLORO-3,9-DIHYDROXY-6H-CHROMENO[4,3-b]QUINOLINE] | 235 °C (dec.) | 88 | 3.3 | 27 |
| Oc1ccc2c(c1)OCc1c-2nc2ccc(O)cc2c1Br [Cpd 7, 7-BROMO-3,9-DIHYDROXY-6H-CHROMENO[4,3-b]QUINOLINE] | 240 °C (dec.) | 63 | 3.6 | 18 |
| C=Cc1c2c(nc3ccc(O)cc13)-c1ccc(O)cc1OC2 [Cpd 8, 3,9-DIHYDROXY-7-VINYL-6H-CHROMENO[4,3-b]QUINOLINE] | 160 °C (dec.) | 548 | 31 | 18 |
| C[Si](C)(C)C#Cc1c2c(nc3ccc(O)cc13)-c1ccc(O)cc1OC2 [Cpd 9, 3,9-DIHYDROXY-7-[(TRIMETHYLSILYL)ETHYNYL]-6H-CHROMENO[4,3-b]QUINOLINE] | 160 °C (dec.) | 169 | 225 | 0.8 |
| C#Cc1c2c(nc3ccc(O)cc13)-c1ccc(O)cc1OC2 [Cpd 10, 3,9-DIHYDROXY-7-ETHYNYL-6H-CHROMENO[4,3-b]QUINOLINE] | 220 °C (dec.) | 131 | 37 | 3 |
| CCc1c2c(nc3ccc(O)cc13)-c1ccc(O)cc1OC2 [Cpd 11, 3,9-DIHYDROXY-7-ETHYL-6H-CHROMENO[4,3-b]QUINOLINE] | 145 °C (dec.) | 66 | 5 | 13 |
| N#Cc1c2c(nc3ccc(O)cc13)-c1ccc(O)cc1OC2 [Cpd 12, 7-CYANO-3,9-DIHYDROXY-6H-CHROMENO[4,3-b]QUINOLINE] | – | 40 | 5.6 | 7 |
| Oc1ccc2c(c1)OCc1c-2nc2ccc(O)cc2c1-c1ccc(Cl)cc1 [Cpd 13, 7-(4-CHLOROPHENYL)-3,9-DIHYDROXY-6H-CHROMENO[4,3-b]QUINOLINE] | 215 to 218 °C (dec.) | 3090 | 160 | 19 |
| N#Cc1ccc(-c2c3c(nc4ccc(O)cc24)-c2ccc(O)cc2OC3)cc1 [Cpd 14, 7-(4-CYANOPHENYL)-3,9-DIHYDROXY-6H-CHROMENO[4,3-b]QUINOLINE] | 295 °C (dec.) | 1420 | 82 | 17 |
| COc1ccc(-c2c3c(nc4ccc(O)cc24)-c2ccc(O)cc2OC3)cc1 [Cpd 15, 3,9-DIHYDROXY-7-(4-METHOXYPHENYL)-6H-CHROMENO[4,3-b]QUINOLINE] | 195 °C (dec.) | 357 | 61 | 6 |
| Oc1ccc2c(c1)OCc1c-2nc2ccc(O)cc2c1-c1ccc(C(F)(F)F)cc1 [Cpd 16, 3,9-DIHYDROXY-7-[4-(TRIFLUOROMETHYL)PHENYL]-6H-CHROMENO[4,3-b]QUINOLINE] | 175 to 177 °C (dec.) | 6090 | 137 | 44 |
| Oc1ccc2c(c1)OCc1c-2nc2ccc(O)cc2c1-c1cccc(Cl)c1 [Cpd 17, 7-(3-CHLOROPHENYL)-3,9-DIHYDROXY-6H-CHROMENO[4,3-b]QUINOLINE] | 162 to 165 °C (dec.) | 505 | 130 | 4 |
| COc1cccc(-c2c3c(nc4ccc(O)cc24)-c2ccc(O)cc2OC3)c1 [Cpd 18, 3,9-DIHYDROXY-7-(3-METHOXYPHENYL)-6H-CHROMENO[4,3-b]QUINOLINE] | 155 to 158 °C (dec.) | 820 | 86 | 10 |
| N#Cc1cccc(-c2c3c(nc4ccc(O)cc24)-c2ccc(O)cc2OC3)c1 [Cpd 19, 7-(3-CYANOPHENYL)-3,9-DIHYDROXY-6H-CHROMENO[4,3-b]QUINOLINE] | 275 °C (dec.) | 1130 | 150 | 8 |
